Measured values published in ChEMBL document CHEMBL3885861, “Open TG-GATES”.

Organism: Rattus norvegicus
Experiment: Open TG-GATES - Regimen: Single
Assay type: toxicity, organism-based, Sprague-Dawley
Parameters: regimen Single, gender Male, age 6 weeks
Details: in vivo, po, route gavage; for gamma-GTP / ALP / ALT / AST / BUN / CRE / Ca / Cl / DBIL / GLC / IP / K / LDH / Na / PL / RALB / TBIL / TC / TG / TP: tissue Plasma; for APTT / Bas / Eos / Fbg / Hb / Ht / Lym / MCH / MCHC / Mono / Neu / Plat / RBC / Ret / WBC: tissue Blood; for KIDNEY_L / KIDNEY_R / KIDNEY_TOTAL: tissue Kidney; for LIVER: tissue Liver
[1] = 10 mg/kg, 3 h, dose level Middle
[2] = 10 mg/kg, 6 h, dose level Middle
[3] = 10 mg/kg, 9 h, dose level Middle
[4] = 10 mg/kg, 24 h, dose level Middle

## O=C(CCCN1CCC(O)(c2ccc(Cl)cc2)CC1)c1ccc(F)cc1 [HALOPERIDOL]
3 mg/kg, 24 h, dose level Low
  gamma-GTP: 1.6 IU/L
[1]
  TERMINAL_BW: 204.5 g
  APTT: 17.3 s
  Bas: 0%
  Eos: 0.4%
  Fbg: 202.4 mg/dL
  Hb: 13.2 g/dL
  Ht: 39.7%
  Lym: 71.2%
  MCH: 22 pg
  MCHC: 33.1%
  Mono: 12%
  Neu: 16.4%
  Plat: 97.9 x10_4/uL
  RBC: 598.8 x10_4/ul
  Ret: 8.8%
  WBC: 87.7 x10_2/uL
  KIDNEY_L: 0.9 g
  KIDNEY_R: 1 g
  KIDNEY_TOTAL: 1.9 g
  LIVER: 9.9 g
  ALP: 802.2 IU/L
  ALT: 36 IU/L
  AST: 59.8 IU/L
  BUN: 11.6 mg/dL
  CRE: 0.6 mg/dL
  Ca: 10.8 mg/dL
  Cl: 107 meq/L
  DBIL: 0.02 mg/dL
  GLC: 216.2 mg/dL
  IP: 10.1 mg/dL
  K: 4.5 meq/L
  LDH: 107.4 IU/L
  Na: 140 meq/L
  PL: 141.2 mg/dL
  RALB: 3.5 g/dL
  TBIL: 0.3 mg/dL
  TC: 80.8 mg/dL
  TG: 30 mg/dL
  TP: 5.5 g/dL
  gamma-GTP: 1.2 IU/L
[2]
  TERMINAL_BW: 201.2 g
  APTT: 16.6 s
  Bas: 0%
  Eos: 0.8%
  Fbg: 201.2 mg/dL
  Hb: 13.8 g/dL
  Ht: 41.9%
  Lym: 69.8%
  MCH: 21.6 pg
  MCHC: 32.9%
  Mono: 5.5%
  Neu: 24%
  Plat: 99.7 x10_4/uL
  RBC: 637.2 x10_4/ul
  Ret: 8.6%
  WBC: 75.3 x10_2/uL
  KIDNEY_L: 0.9 g
  KIDNEY_R: 1 g
  KIDNEY_TOTAL: 1.9 g
  LIVER: 8.9 g
  ALP: 922.8 IU/L
  ALT: 31.8 IU/L
  AST: 56.5 IU/L
  BUN: 8.8 mg/dL
  CRE: 0.4 mg/dL
  Ca: 10.4 mg/dL
  Cl: 107.2 meq/L
  DBIL: 0.025 mg/dL
  GLC: 189.2 mg/dL
  IP: 10.2 mg/dL
  K: 4.7 meq/L
  LDH: 111 IU/L
  Na: 139.5 meq/L
  PL: 130.5 mg/dL
  RALB: 3.5 g/dL
  TBIL: 0.4 mg/dL
  TC: 75.2 mg/dL
  TG: 29.5 mg/dL
  TP: 5.5 g/dL
  gamma-GTP: 1.2 IU/L
[3]
  TERMINAL_BW: 195.8 g
  APTT: 17 s
  Bas: 0%
  Eos: 0.4%
  Fbg: 210 mg/dL
  Hb: 13.9 g/dL
  Ht: 41.8%
  Lym: 75.8%
  MCH: 21.8 pg
  MCHC: 33.4%
  Mono: 7.8%
  Neu: 16%
  Plat: 101.8 x10_4/uL
  RBC: 641.2 x10_4/ul
  Ret: 8.6%
  WBC: 63.2 x10_2/uL
  KIDNEY_L: 0.9 g
  KIDNEY_R: 0.9 g
  KIDNEY_TOTAL: 1.7 g
  LIVER: 8.4 g
  ALP: 812.8 IU/L
  ALT: 27.8 IU/L
  AST: 53.8 IU/L
  BUN: 9.2 mg/dL
  CRE: 0.6 mg/dL
  Ca: 10.1 mg/dL
  Cl: 107 meq/L
  DBIL: 0.024 mg/dL
  GLC: 200.2 mg/dL
  IP: 11.1 mg/dL
  K: 4.6 meq/L
  LDH: 100 IU/L
  Na: 139.6 meq/L
  PL: 134.2 mg/dL
  RALB: 3.7 g/dL
  TBIL: 0.4 mg/dL
  TC: 76.4 mg/dL
  TG: 25.8 mg/dL
  TP: 5.5 g/dL
  gamma-GTP: 2.6 IU/L
[4]
  TERMINAL_BW: 213.1 g
  APTT: 16.2 s
  Bas: 0%
  Eos: 1.2%
  Fbg: 193.4 mg/dL
  Hb: 14.2 g/dL
  Ht: 42.4%
  Lym: 82%
  MCH: 21.9 pg
  MCHC: 33.5%
  Mono: 6.8%
  Neu: 10%
  Plat: 114.7 x10_4/uL
  RBC: 648 x10_4/ul
  Ret: 8.2%
  WBC: 76.5 x10_2/uL
  KIDNEY_L: 1 g
  KIDNEY_R: 0.9 g
  KIDNEY_TOTAL: 1.9 g
  LIVER: 10.5 g
  ALP: 1019.6 IU/L
  ALT: 32.6 IU/L
  AST: 62.2 IU/L
  BUN: 23.8 mg/dL
  CRE: 0.5 mg/dL
  Ca: 11.2 mg/dL
  Cl: 104.6 meq/L
  DBIL: 0.034 mg/dL
  GLC: 182.4 mg/dL
  IP: 8.2 mg/dL
  K: 5 meq/L
  LDH: 102.4 IU/L
  Na: 140 meq/L
  PL: 160.2 mg/dL
  RALB: 3.9 g/dL
  TBIL: 0.3 mg/dL
  TC: 79.8 mg/dL
  TP: 6 g/dL
  gamma-GTP: 1 IU/L
